Key:
lambsquarters (CHEAL) = assay: Postemergence greenhouse trial, % visual injury on lambsquarters; assay type: in vivo, Chenopodium album; conditions: for % visual injury, observed (Ob): CHEAL
In short: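 Visual injury, 0 (none) to 100 (complete kill), rated 20-22 d after overhead track-sprayer application at 187 L/ha; Colby's equation gave expected mixture responses. Herbicide (g ae/ha) and cloquintocet-mexyl safener (g ai/ha) diluted in aqueous 1.5% v/v Agri-dex, applied to weeds at 2–3 true leaves.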

kochia (KCHSC) = assay: Postemergence greenhouse trial, % visual injury on kochia; assay type: in vivo, Kochia scoparia; conditions: KCHSC
In short: (§1)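 Herbicide rates g ae/ha, safener (cloquintocet-mexyl) rates g ai/ha; spray carrier 1.5% v/v crop oil concentrate, 187 L/ha, 2nd–3rd leaf stage. Rating: visual % injury at 20-22 d.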

[1] = tested on: purple deadnettle (LAMPU); assay: Postemergence greenhouse trial, % visual injury on purple deadnettle; assay type: in vivo, Lamium purpureum; conditions: LAMPU
Protocol: Seeds of the desired test plant species were planted in Sun Gro MetroMix® 306 planting mixture, which typically has a pH of 6.0 to 6.8 and an organic matter content of about 30 percent, in plastic pots with a surface area of 103.2 square centimeters (cm^2). When required to ensure good germination and healthy plants, a fungicide treatment and/or other chemical or physical treatment was applied. The plants were grown for 7-36 days (d) in a greenhouse with an approximate 14-hour (h) photoperiod which was maintained at about 23° C. during the day and 22° C. during the night. Nutrients and water were added on a regular basis and supplemental lighting was provided with overhead metal halide 1000-Watt lamps as necessary. The plants were employed for testing when they reached the second or third true leaf stage.
Weighed amounts of technical material were dissolved in a volume of 97:3 volume per volume (v/v) acetone/dimethyl sulfoxide (DMSO) to stock solutions. […] The concentrated stock solutions were diluted with an aqueous mixture of 1.5% v/v of Agri-dex crop oil concentrate to provide the appropriate application rates. Compound requirements are based upon a 12 milliliter (mL) application volume at a rate of 187 liters per hectare (L/ha). Stocks solutions of the safeners were prepared following the same procedure. Spray solutions of the safeners and experimental compound mixtures were prepared by adding the stock solutions to the appropriate amount of dilution solution to form a 12 mL spray solution in two-way combinations. Formulated compounds were applied to the plant material with an overhead Mandel track sprayer equipped with 8002E nozzles calibrated to deliver 187 L/ha over an application area of 0.503 square meters (m^2) at a spray height of 18 inches (43 centimeters (cm)) above average plant canopy. Control plants were sprayed in the same manner with the solvent blank. All herbicide application (component a) rates are in g ae/ha and all safener (component b) rates are in g ai/ha.
The treated plants and control plants were placed in a greenhouse as described above and watered by sub-irrigation to prevent wash-off of the test compounds. After 20-22 d, the condition of the test plants as compared with that of the control plants was determined visually and scored on a scale of 0 to 100 percent where 0 corresponds to no injury and 100 corresponds to complete kill. […] Colby's equation was used to determine the herbicidal effects expected from the mixtures. […]

common poppy (PAPRH) = assay: Postemergence greenhouse trial, % visual injury on common poppy; assay type: in vivo, Papaver rhoeas; conditions: PAPRH
In short: as §1

wild mustard (SINAR) = assay: Postemergence greenhouse trial, % visual injury on wild mustard; assay type: in vivo, Sinapis arvensis; conditions: SINAR
In short: as §1

[2] = tested on: bird's-eye speedwell (VERPE); assay: Postemergence greenhouse trial, % visual injury on bird's-eye speedwell; assay type: in vivo, Veronica persica; conditions: VERPE
In short: as §1

[3] = compound 2 4.380 + CQC-m 0 g/ha

Nc1c(F)c(-c2ccc3cc[nH]c3c2F)nc(C(=O)OCc2ccccc2)c1Cl [compound 2]
% visual injury, observed (Ob) (lambsquarters (CHEAL); [3]): 85%
% visual injury, observed (Ob) (lambsquarters (CHEAL); compound 2 8.75 + CQC-m 0 g/ha): 95%
% visual injury, observed (Ob) (lambsquarters (CHEAL); compound 2 17.5 + CQC-m 0 g/ha): 97%
% visual injury, observed (Ob) (lambsquarters (CHEAL); compound 2 35 + CQC-m 0 g/ha): 100%
% visual injury, observed (Ob) (lambsquarters (CHEAL); compound 2 70 + CQC-m 0 g/ha): 100%
pest or weed control at 35 g/ha (lambsquarters (CHEAL); Chenopodium album, post-emergence, alone, 35 g/ha, read-out: % visual injury, Ob): 97%
% visual injury, observed (Ob) (kochia (KCHSC); [3]): 93%
% visual injury, observed (Ob) (kochia (KCHSC); compound 2 8.75 + CQC-m 0 g/ha): 95%
% visual injury, observed (Ob) (kochia (KCHSC); compound 2 17.5 + CQC-m 0 g/ha): 98%
% visual injury, observed (Ob) (kochia (KCHSC); compound 2 35 + CQC-m 0 g/ha): 99%
% visual injury, observed (Ob) (kochia (KCHSC); compound 2 70 + CQC-m 0 g/ha): 100%
% visual injury, observed (Ob) (kochia (KCHSC); compound 2 140 + CQC-m 0 g/ha): 95%
% visual injury, observed (Ob) [1, 3]: 85%
% visual injury, observed (Ob) ([1]; compound 2 8.75 + CQC-m 0 g/ha): 93%
% visual injury, observed (Ob) ([1]; compound 2 17.5 + CQC-m 0 g/ha): 95%
% visual injury, observed (Ob) ([1]; compound 2 35 + CQC-m 0 g/ha): 100%
% visual injury, observed (Ob) ([1]; compound 2 70 + CQC-m 0 g/ha): 100%
% visual injury, observed (Ob) (common poppy (PAPRH); [3]): 93%
% visual injury, observed (Ob) (common poppy (PAPRH); compound 2 8.75 + CQC-m 0 g/ha): 100%
% visual injury, observed (Ob) (common poppy (PAPRH); compound 2 17.5 + CQC-m 0 g/ha): 100%
% visual injury, observed (Ob) (common poppy (PAPRH); compound 2 35 + CQC-m 0 g/ha): 100%
% visual injury, observed (Ob) (common poppy (PAPRH); compound 2 70 + CQC-m 0 g/ha): 100%
% visual injury, observed (Ob) (wild mustard (SINAR); [3]): 94%
% visual injury, observed (Ob) (wild mustard (SINAR); compound 2 8.75 + CQC-m 0 g/ha): 95%
% visual injury, observed (Ob) (wild mustard (SINAR); compound 2 17.5 + CQC-m 0 g/ha): 99%
% visual injury, observed (Ob) (wild mustard (SINAR); compound 2 35 + CQC-m 0 g/ha): 100%
% visual injury, observed (Ob) (wild mustard (SINAR); compound 2 70 + CQC-m 0 g/ha): 100%
% visual injury, observed (Ob) [2, 3]: 75%
% visual injury, observed (Ob) ([2]; compound 2 8.75 + CQC-m 0 g/ha): 95%
% visual injury, observed (Ob) ([2]; compound 2 17.5 + CQC-m 0 g/ha): 100%
% visual injury, observed (Ob) ([2]; compound 2 35 + CQC-m 0 g/ha): 100%
% visual injury, observed (Ob) ([2]; compound 2 70 + CQC-m 0 g/ha): 100%

From patent publication US9763445B2, “Safened herbicidal compositions comprising a pyridine carboxylic acid herbicide” (Dow AgroSciences, LLC, priority 2014, dated 2017)
